Results on twelve compounds are retold here after patent US20180194799A1, “BETUIN DERIVATIVES FOR PREVENTING OR TREATING HIV INFECTIONS” (GLAXOSMITHKLINE INTELLECTUAL PROPERTY (NO.2) LIMITED, priority 2015, published 2018).

Where a name gives a salt, the structure may show the parent alone.

Test [1] concerns V370A. The test is described as follows: MT4 Cell Antiviral Assay, V370A. As to conditions: Human immunodeficiency virus 1, MT4, 120 h, read-out: EC50 V370A (nM). In kind it is cell-based, HIV-1.
The subject of test [2] is NL4-3 wt. The test is described as follows: MT4 Cell Antiviral Assay, NL4-3 wt. In kind it is cell-based, HIV-1. The note with it: Human immunodeficiency virus 1, NL43, 120 h; HIV MT4 Antiviral Cell Assay of Example 17, 5 days incubation.
For test [3], the system named is HIV-1 (strain IIIB). The test is described as follows: MT4 Cell Antiviral Assay (general statements and standard). The note with it: Human immunodeficiency virus 1, IIIB; control and standard in every assay, propidium iodide readout, MT4 cells; read-out: expected range of IC50 values. In kind it is cell-based. The protocol:
Antiviral HIV activity and compound-induced cytotoxicity were measured in parallel by means of a propidium iodide based procedure in the human T-cell lymphotropic virus transformed cell line MT4. Aliquots of the test compounds were serially diluted in medium (RPMI 1640, 10% fetal calf serum (FCS), and gentamycin) in 96-well plates (Costar 3598) using a Cetus Pro/Pette. Exponentially growing MT4 cells were harvested and centrifuged at 1000 rpm for 10 min in a Jouan centrifuge (model CR 4 12). Cell pellets were resuspended in fresh medium (RPMI 1640, 20% FCS, 20% IL-2, and gentamycin) to a density of 5×10^5 cells/ml. Cell aliquots were infected by the addition of HIV-1 (strain IIIB) diluted to give a viral multiplicity of infection of 100×TCID50. […]
For propidium iodide readout, 27 μl of 5% Nonidet-40 was added to each well of the incubation plate. […]
For MTS readout, 20 μl CellTiter 96 AQ One Solution reagent (Promega #G3582) was added to each well. At 75 minutes following the addition of MTS reagent, absorbance was read at 492 nm using a Tecan Sunrise 96-well plate reader. […]
For each assay plate, the results (relative fluorescence units, rfU, or OD values) of wells containing uninfected cells or infected cells with no compound were averaged, respectively. […] Percent of cells remaining is determined by the following formula: […]

In test [4] the test system is HIV. As to conditions: cited from earlier work.

Regarding `CC(C)C1=C2[C@H]3CC[C@@H]4[C@@]5(C)CC=C(c6ccc(C(=O)O)cc6)C(C)(C)[C@@H]5CC[C@@]4(C)[C@]3(C)CC[C@@]2([C@@H](O)CN(CC2CC2)C(=O)CN(C)C)CC1=O` [Example 1, 4-((3aR,5aR,5bR,7aR,11aS,11bR,13aS)-3a-((R)-2-(N-(cyclopropylmethyl)-2-(dimethylamino)acetamido)-1-hydroxyethyl)-1-isopropyl-5a,5b,8,8,11a-pentamethyl-2-oxo-3,3a,4,5,5a,5b,6,7,7a,8,11,11a,11b,12,13,13a-hexadecahydro-2H-cyclopenta[a]chrysen-9-yl)benzoic acid], the concentration giving a half-maximal response (EC50) in test [1] turned out to be 17 nM; in test [2], 3.7 nM.

Consider `CC(C)C1=C2[C@H]3CC[C@@H]4[C@@]5(C)CC=C(c6ccc(C(=O)O)cc6)C(C)(C)[C@@H]5CC[C@@]4(C)[C@]3(C)CC[C@@]2([C@@H](O)CN(CCN(C)C)CC2CC2)CC1=O` [Example 10, 4-((3aR,5aR,5bR,7aR,11aS,11bR,13aS)-3a-((R)-2-((cyclopropylmethyl)(2-(dimethylamino)ethyl)amino)-1-hydroxyethyl)-1-isopropyl-5a,5b,8,8,11a-pentamethyl-2-oxo-3,3a,4,5,5a,5b,6,7,7a,8,11,11a,11b,12,13,13a-hexadecahydro-2H-cyclopenta[a]chrysen-9-yl)benzoic acid hydrochloride], for which the EC50 in test [1] was 7.9 nM; in test [2], 7.8 nM.

For `COCC(=O)N(CC1CC1)C[C@H](O)[C@@]12CC[C@]3(C)[C@H](CC[C@@H]4[C@@]5(C)CC=C(c6cn(CC(=O)O)nn6)C(C)(C)[C@@H]5CC[C@]43C)C1=C(C(C)C)C(=O)C2` [Example 12, 2-(4-((3aR,5aR,5bR,7aR,11aS,11bR,13aS)-3a-((R)-2-(N-(cyclopropylmethyl)-2-methoxyacetamido)-1-hydroxyethyl)-1-isopropyl-5a,5b,8,8,11a-pentamethyl-2-oxo-3,3a,4,5,5a,5b,6,7,7a,8,11,11a,11b,12,13,13a-hexadecahydro-2H-cyclopenta[a]chrysen-9-yl)-1H-1,2,3-triazol-1-yl)acetic acid hydrochloride], the concentration for a half-maximal effect (EC50) in test [1] was determined as 15500 nM; in test [2], 20400 nM. Turning to `CC(=O)N(CC1CC1)C[C@H](O)[C@@]12CC[C@]3(C)[C@H](CC[C@@H]4[C@@]5(C)CC=C(c6ccc(C(=O)O)cc6)C(C)(C)[C@@H]5CC[C@]43C)C1=C(C(C)C)C(=O)C2` [Example 11, 4-((3aR,5aR,5bR,7aR,11aS,11bR,13aS)-3a-((R)-2-(N-(cyclopropylmethyl)acetamido)-1-hydroxyethyl)-1-isopropyl-5a,5b,8,8,11a-pentamethyl-2-oxo-3,3a,4,5,5a,5b,6,7,7a,8,11,11a,11b,12,13,13a-hexadecahydro-2H-cyclopenta[a]chrysen-9-yl)benzoic acid], the EC50 in test [1] was 24.5 nM; in test [2] it was 39.8 nM. Turning to `Cc1cn([C@H]2C[C@H](N=[N+]=[N-])[C@@H](CO)O2)c(=O)[nH]c1=O` [3′-azido-3′-deoxythymidine], the IC50 in test [3] was in the range of 40 to 120 nM. Consider `CC(C)C1=C2[C@H]3CC[C@@H]4[C@@]5(C)CC=C(c6ccc(C(=O)O)cc6)C(C)(C)C5CC[C@@]4(C)[C@]3(C)CC[C@@]2([C@@H](O)CN(CC2CCC2)C(=O)CN2CCCC2)CC1=O` (stereo in doubt) [Example 5, 4-((3aR,5aR,5bR,7aR,11aS,11bR,13aS)-3a-((R)-2-(N-(cyclobutylmethyl)-2-(pyrrolidin-1-yl)acetamido)-1-hydroxyethyl)-1-isopropyl-5a,5b,8,8,11a-pentamethyl-2-oxo-3,3a,4,5,5a,5b,6,7,7a,8,11,11a,11b,12,13,13a-hexadecahydro-2H-cyclopenta[a]chrysen-9-yl)benzoic acid hydrochloride], for which the EC50 worked out at 3.8 nM in test [1] and 35.4 nM in test [2]. For `CC(C)C1=C2[C@H]3CC[C@@H]4[C@@]5(C)CC=C(c6ccc(C(=O)O)cc6)C(C)(C)C5CC[C@@]4(C)[C@]3(C)CC[C@@]2([C@@H](O)CN(CC2CC2)C(=O)CN2CCCC2)CC1=O` (stereo in doubt) [Example 3, 4-((3aR,5aR,5bR,7aR,11aS,11bR,13aS)-3a-((R)-2-(N-(cyclopropylmethyl)-2-(pyrrolidin-1-yl)acetamido)-1-hydroxyethyl)-1-isopropyl-5a,5b,8,8,11a-pentamethyl-2-oxo-3,3a,4,5,5a,5b,6,7,7a,8,11,11a,11b,12,13,13a-hexadecahydro-2H-cyclopenta[a]chrysen-9-yl)benzoic acid hydrochloride] the same measures were 6.5 nM and 2.8 nM. For `CC(C)C1=C2[C@H]3CC[C@@H]4[C@@]5(C)CC=C(c6ccc(C(=O)O)cc6)C(C)(C)C5CC[C@@]4(C)[C@]3(C)CC[C@@]2([C@@H](O)CN(CC2CC2)C(=O)CN2CCCC2=O)CC1=O` (stereo in doubt) [Example 4, 4-((3aR,5aR,5bR,7aR,11aS,11bR,13aS)-3a-((R)-2-(N-(cyclopropylmethyl)-2-(2-oxopyrrolidin-1-yl)acetamido)-1-hydroxyethyl)-1-isopropyl-5a,5b,8,8,11a-pentamethyl-2-oxo-3,3a,4,5,5a,5b,6,7,7a,8,11,11a,11b,12,13,13a-hexadecahydro-2H-cyclopenta[a]chrysen-9-yl)benzoic acid], the results for the EC50 in test [1] and in test [2] were 1020 nM and 10.2 nM, respectively.

For `CC(C)C1=C2[C@H]3CC[C@@H]4[C@@]5(C)CC=C(c6ccc(C(=O)O)cc6)C(C)(C)[C@@H]5CC[C@@]4(C)[C@]3(C)CC[C@@]2([C@@H](O)CNCC2CC2)CC1=O` [Example 9, 4-((3aR,5aR,5bR,7aR,11aS,11bR,13aS)-3a-((R)-2-((cyclopropylmethyl)amino)-1-hydroxyethyl)-1-isopropyl-5a,5b,8,8,11a-pentamethyl-2-oxo-3,3a,4,5,5a,5b,6,7,7a,8,11,11a,11b,12,13,13a-hexadecahydro-2H-cyclopenta[a]chrysen-9-yl)benzoic acid hydrochloride], the values for the EC50 in test [1] and in test [2] were 10000 nM and 69.2 nM, respectively.

For the compound `COCC(=O)N(CC1CC1)C[C@H](O)[C@@]12CC[C@]3(C)[C@H](CC[C@@H]4[C@@]5(C)CC=C(c6ccc(C(=O)O)cc6)C(C)(C)C5CC[C@]43C)C1=C(C(C)C)C(=O)C2` (stereo in doubt) [Example 2, 4-((3aR,5aR,5bR,7aR,11aS,11bR,13aS)-3a-((R)-2-(N-(cyclopropylmethyl)-2-methoxyacetamido)-1-hydroxyethyl)-1-isopropyl-5a,5b,8,8,11a-pentamethyl-2-oxo-3,3a,4,5,5a,5b,6,7,7a,8,11,11a,11b,12,13,13a-hexadecahydro-2H-cyclopenta[a]chrysen-9-yl)benzoic acid], the EC50 in test [1] worked out at 389 nM; in test [2] it was 15.5 nM. In the case of `CC(C)C1=C2[C@H]3CC[C@@H]4[C@@]5(C)CC=C(c6ccc(C(=O)O)cc6)C(C)(C)C5CC[C@@]4(C)[C@]3(C)CC[C@@]2([C@@H](O)CN(CC2CCC2)C(=O)CN(C)C)CC1=O` (stereo in doubt) [Example 6, 4-((3aR,5aR,5bR,7aR,11aS,11bR,13aS)-3a-((R)-2-(N-(cyclobutylmethyl)-2-(dimethylamino)acetamido)-1-hydroxyethyl)-1-isopropyl-5a,5b,8,8,11a-pentamethyl-2-oxo-3,3a,4,5,5a,5b,6,7,7a,8,11,11a,11b,12,13,13a-hexadecahydro-2H-cyclopenta[a]chrysen-9-yl)benzoic acid hydrochloride], the EC50 in test [1] was 8.9 nM; in test [2], 3 nM. Consider `C=C(C)[C@@H]1CC[C@]2(C(=O)O)CC[C@]3(C)[C@H](CC[C@@H]4[C@@]5(C)CC[C@H](OC(=O)CC(C)(C)C(=O)O)C(C)(C)[C@@H]5CC[C@]43C)[C@@H]12` [Bevirimat], for which the “HIV viral load reduction (mean)” value in test [4] (patients with trough levels >=20 μg/mL and without baseline Gag polymorphisms at Q369, V370 or T371) is given as 1.3 log10/mL. In addition, in test [4] (users with Gag polymorphisms at Q369, V370 or T371), the “viral load reduction versus patients without Gag polymorphisms” value is recorded as “significantly lower load reductions”.
